# Test results as given in PubChem BioAssay (NCI).
#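 Step 1: Grow cells in 96-well plates. Step 2: Expose to compound for 48 hours at 5 concentrations. Step 3: Interpolate endpoints linearly; if unreached, use highest concentration. GI50 = concentration required for 50% inhibition of growth. At the TGI there is no net growth.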
# How the values were obtained:
# Experiment in all cases: NCI-60 cell line screen, 48 h
# SR leukemia = test system: SR leukemia
# BT-549 breast = test system: BT-549 breast
# CAKI-1 renal = test system: CAKI-1 renal
# MCF7 breast = test system: MCF7 breast
# SK-OV-3 ovarian = test system: SK-OV-3 ovarian
# EKVX NSCLC = test system: EKVX NSCLC
# OVCAR-3 ovarian = test system: OVCAR-3 ovarian
# MOLT-4 leukemia = test system: MOLT-4 leukemia
# KM12 colon = test system: KM12 colon
# IGROV1 ovarian = test system: IGROV1 ovarian
# NCI-H226 lung = test system: NCI-H226 lung
# K-562 leukemia = test system: K-562 leukemia
# NCI-H460 lung = test system: NCI-H460 lung
# ACHN renal = test system: ACHN renal
# HS 578T breast = test system: HS 578T breast
# HOP-92 NSCLC = test system: HOP-92 NSCLC
# 786-0 renal = test system: 786-0 renal
# PC-3 prostate = test system: PC-3 prostate
# SW-620 colon = test system: SW-620 colon
# SN12C renal = test system: SN12C renal
# SK-MEL-5 melanoma = test system: SK-MEL-5 melanoma
# NCI-H23 lung = test system: NCI-H23 lung
# RXF 393 renal = test system: RXF 393 renal
# UACC-257 melanoma = test system: UACC-257 melanoma
# TK-10 renal = test system: TK-10 renal
# OVCAR-5 ovarian = test system: OVCAR-5 ovarian
# SF-539 CNS = test system: SF-539 CNS
# U251 CNS = test system: U251 CNS
# NCI-H522 lung = test system: NCI-H522 lung
# HOP-62 NSCLC = test system: HOP-62 NSCLC
# OVCAR-4 ovarian = test system: OVCAR-4 ovarian
# SK-MEL-28 melanoma = test system: SK-MEL-28 melanoma
# A549 NSCLC = test system: A549 NSCLC
# SF-295 CNS = test system: SF-295 CNS
# HCC-2998 colon = test system: HCC-2998 colon
# UACC-62 melanoma = test system: UACC-62 melanoma
# MDA-MB-435 = test system: MDA-MB-435
# SNB-19 CNS = test system: SNB-19 CNS
# HT29 colon = test system: HT29 colon
# SNB-75 CNS = test system: SNB-75 CNS
# HL-60(TB) leukemia = test system: HL-60(TB) leukemia
# RPMI-8226 leukemia = test system: RPMI-8226 leukemia
# T-47D breast = test system: T-47D breast
# UO-31 renal = test system: UO-31 renal
# CCRF-CEM leukemia = test system: CCRF-CEM leukemia
# DU-145 prostate = test system: DU-145 prostate
# M14 melanoma = test system: M14 melanoma
# MALME-3M melanoma = test system: MALME-3M melanoma
# HCT-116 colon = test system: HCT-116 colon
# A498 renal = test system: A498 renal
# SK-MEL-2 melanoma = test system: SK-MEL-2 melanoma
# COLO 205 colon = test system: COLO 205 colon
# LOX IMVI melanoma = test system: LOX IMVI melanoma
# HCT-15 colon = test system: HCT-15 colon
# OVCAR-8 ovarian = test system: OVCAR-8 ovarian
# SF-268 CNS = test system: SF-268 CNS
# MDA-MB-231 breast = test system: MDA-MB-231 breast
# NCI/ADR-RES ovarian = test system: NCI/ADR-RES ovarian
smiles,measurement,setting,value
Cc1ccc(NS(=O)(=O)c2ccc(-c3cnc(C4CC4)o3)cc2)cc1C,GI50,SR leukemia,476 nM
same,TGI,SR leukemia,> 100000 nM
same,GI50,BT-549 breast,715 nM
same,TGI,BT-549 breast,13700 nM
same,GI50,CAKI-1 renal,385 nM
same,TGI,CAKI-1 renal,> 42100 nM
same,GI50,MCF7 breast,279 nM
same,GI50,SK-OV-3 ovarian,917 nM
same,TGI,SK-OV-3 ovarian,> 29100 nM
same,GI50,EKVX NSCLC,713 nM
same,TGI,EKVX NSCLC,> 45400 nM
same,GI50,OVCAR-3 ovarian,342 nM
same,TGI,OVCAR-3 ovarian,12500 nM
same,GI50,MOLT-4 leukemia,583 nM
same,TGI,MOLT-4 leukemia,> 52700 nM
same,GI50,KM12 colon,279 nM
same,TGI,KM12 colon,> 32600 nM
same,GI50,IGROV1 ovarian,593 nM
same,TGI,IGROV1 ovarian,> 43300 nM
same,GI50,NCI-H226 lung,843 nM
same,TGI,NCI-H226 lung,> 28400 nM
same,GI50,K-562 leukemia,< 37.3 nM
same,TGI,K-562 leukemia,> 68400 nM
same,GI50,NCI-H460 lung,481 nM
same,TGI,NCI-H460 lung,11500 nM
same,GI50,ACHN renal,673 nM
same,TGI,ACHN renal,> 33900 nM
same,GI50,HS 578T breast,450 nM
same,TGI,HS 578T breast,5770 nM
same,GI50,HOP-92 NSCLC,308 nM
same,TGI,HOP-92 NSCLC,3350 nM
same,GI50,786-0 renal,544 nM
same,TGI,786-0 renal,> 37800 nM
same,GI50,PC-3 prostate,432 nM
same,TGI,PC-3 prostate,> 27600 nM
same,GI50,SW-620 colon,341 nM
same,TGI,SW-620 colon,> 72200 nM
same,GI50,SN12C renal,711 nM
same,TGI,SN12C renal,> 34000 nM
same,GI50,SK-MEL-5 melanoma,390 nM
same,TGI,SK-MEL-5 melanoma,1700 nM
same,GI50,NCI-H23 lung,1130 nM
same,TGI,NCI-H23 lung,> 57800 nM
same,GI50,RXF 393 renal,338 nM
same,TGI,RXF 393 renal,3890 nM
same,GI50,UACC-257 melanoma,836 nM
same,TGI,UACC-257 melanoma,9550 nM
same,GI50,TK-10 renal,1440 nM
same,TGI,TK-10 renal,8030 nM
same,GI50,OVCAR-5 ovarian,1310 nM
same,TGI,OVCAR-5 ovarian,> 38800 nM
same,GI50,SF-539 CNS,366 nM
same,TGI,SF-539 CNS,1770 nM
same,GI50,U251 CNS,458 nM
same,TGI,U251 CNS,> 33900 nM
same,GI50,NCI-H522 lung,267 nM
same,TGI,NCI-H522 lung,3280 nM
same,GI50,HOP-62 NSCLC,557 nM
same,TGI,HOP-62 NSCLC,> 40100 nM
same,GI50,OVCAR-4 ovarian,912 nM
same,TGI,OVCAR-4 ovarian,10400 nM
same,GI50,SK-MEL-28 melanoma,1260 nM
same,TGI,SK-MEL-28 melanoma,> 45400 nM
same,GI50,A549 NSCLC,751 nM
same,TGI,A549 NSCLC,> 49200 nM
same,GI50,SF-295 CNS,407 nM
same,TGI,SF-295 CNS,3470 nM
same,GI50,HCC-2998 colon,1570 nM
same,TGI,HCC-2998 colon,> 32800 nM
same,GI50,UACC-62 melanoma,383 nM
same,TGI,UACC-62 melanoma,> 38000 nM
same,GI50,MDA-MB-435,< 25.2 nM
same,TGI,MDA-MB-435,2460 nM
same,GI50,SNB-19 CNS,522 nM
same,TGI,SNB-19 CNS,> 63800 nM
same,GI50,HT29 colon,330 nM
same,TGI,HT29 colon,1570 nM
same,GI50,SNB-75 CNS,184 nM
same,TGI,SNB-75 CNS,823 nM
same,GI50,HL-60(TB) leukemia,259 nM
same,TGI,HL-60(TB) leukemia,1460 nM
same,GI50,RPMI-8226 leukemia,450 nM
same,TGI,RPMI-8226 leukemia,> 25400 nM
same,GI50,T-47D breast,373 nM
same,TGI,T-47D breast,16700 nM
same,GI50,UO-31 renal,839 nM
same,TGI,UO-31 renal,7740 nM
same,GI50,CCRF-CEM leukemia,433 nM
same,TGI,CCRF-CEM leukemia,> 59300 nM
same,GI50,DU-145 prostate,972 nM
same,TGI,DU-145 prostate,> 68700 nM
same,GI50,M14 melanoma,375 nM
same,TGI,M14 melanoma,11800 nM
same,GI50,MALME-3M melanoma,683 nM
same,TGI,MALME-3M melanoma,18100 nM
same,GI50,HCT-116 colon,394 nM
same,TGI,HCT-116 colon,10800 nM
same,GI50,A498 renal,228 nM
same,TGI,A498 renal,932 nM
same,GI50,SK-MEL-2 melanoma,797 nM
same,TGI,SK-MEL-2 melanoma,14400 nM
same,GI50,COLO 205 colon,464 nM
same,TGI,COLO 205 colon,1840 nM
same,GI50,LOX IMVI melanoma,524 nM
same,TGI,LOX IMVI melanoma,> 32300 nM
same,GI50,HCT-15 colon,302 nM
same,TGI,HCT-15 colon,> 33200 nM
same,GI50,OVCAR-8 ovarian,916 nM
same,TGI,OVCAR-8 ovarian,> 55900 nM
same,GI50,SF-268 CNS,1110 nM
same,TGI,SF-268 CNS,> 36800 nM
same,GI50,MDA-MB-231 breast,797 nM
same,TGI,MDA-MB-231 breast,15900 nM
same,GI50,NCI/ADR-RES ovarian,407 nM
same,TGI,NCI/ADR-RES ovarian,> 41800 nM
